This note sets out measurements from US20060258738A1, “Use of dronabinol for treatment of side effects of Hepatitis C therapy” (priority 2005, published 2006).

In data set [1] the test system is GI side effects (nausea/vomiting, anorexia and weight loss) related to anti-HCV therapy. The data set can be described thus: Retrospective chart review: open label dronabinol for GI side effects of anti-HCV therapy, positive response. The conditions noted are these: whole cohort. The class given is in vivo, human. Here is the method:
A retrospective chart review of 22 patients with chronic HCV receiving IFN (Pegylated n=18, standard n=4) and RBV was performed. All were receiving open label dronabinol for specific GI side effects (nausea/vomiting, anorexia and weight loss) related to anti-HCV therapy. Over half the cohort (13/22) were co-infected with HIV. Demographic, clinical, and virological data was recorded at baseline (pre dronabinol therapy); Body Mass Index (BMI) was calculated at baseline, and at the end of dronabinol therapy.
A positive response to dronabinol was defined as follows: […]
Subjective: Documentation in chart of improvement in symptoms of nausea, vomiting or anorexia, as reported by patient.
Objective: No change or increase in BMI at end of dronabinol treatment compared to baseline.

Data set [2] in a line: Retrospective chart review: adverse events, tolerability and discontinuation of dronabinol.

As to `CCCCCc1cc(O)c2c(c1)OC(C)(C)[C@@H]1CCC(C)=C[C@@H]21` [dronabinol, delta-9-tetrahydrocannabinol], the “Positive outcome, both for improvement in symptoms and stabilization or increase in BMI” value in data set [1] is given as “over 40%”. Further, the Tolerability result in data set [2] (the 4 members of the cohort aged 60 or greater) was “well tolerated”; in data set [2] (whole cohort, including those with HIV/HCV), “well-tolerated by the majority of the cohort”.
